Legend:
[1] = biological target: T1, PobA (Atu4544), GST-atu4544 (Agrobacterium fabrum, UniProt Q7CV80); assay: HPLC of substrate consumption and protocatechuate formation; assay type: biochemical; conditions: NADPH or NADH 0.4 mM, FAD 5 uM, 0.5 mM substrate, 50 mM Tris-Cl pH 7.4, 30 C; GST-tagged enzyme
T1 construct: full ORF (1,173 bp) in pGEX-4T-1, N-terminal GST tag kept, E. coli BL21(DE3), about 70 kDa with tag

[2] = biological target: T2, PobR (Atu4545), HIS-atu4545 (Agrobacterium fabrum, UniProt Q7CV81); assay: EMSA, effect on PobR/DNA complex formation; assay type: binding; conditions: FAM-labelled atu4544-atu4545 intergenic DNA; varying concentrations; pH 8.0, 25 C
T2 construct: full ORF (924 bp) in pET30a, N-terminal His tag kept, E. coli BL21(DE3)
T2 sequence (Q7CV81 1-307): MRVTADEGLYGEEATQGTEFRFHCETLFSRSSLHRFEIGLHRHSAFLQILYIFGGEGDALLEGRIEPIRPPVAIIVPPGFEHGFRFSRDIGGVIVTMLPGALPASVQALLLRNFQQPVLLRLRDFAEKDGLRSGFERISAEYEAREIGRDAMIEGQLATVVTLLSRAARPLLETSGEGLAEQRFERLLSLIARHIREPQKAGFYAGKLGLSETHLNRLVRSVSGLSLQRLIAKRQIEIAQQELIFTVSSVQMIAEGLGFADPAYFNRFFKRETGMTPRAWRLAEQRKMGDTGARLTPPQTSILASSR

[3] = biological target: T3, PobR (HIS-atu4545) (Agrobacterium tumefaciens C58) (UniProt Q7CV81); assay: competition; conditions: EMSA: per 50 mL binding buffer 0.394 g Tris-base, 0.186 g KCl, 0.019 g EDTA-2Na, 10% glycerol, 0.008 g DTT (about 65 mM Tris, 50 mM KCl, 1 mM EDTA, 1 mM DTT) …
T3 sequence: T2 sequence (Q7CV81 1-307)

T1 sequence (Q7CV80 1-390): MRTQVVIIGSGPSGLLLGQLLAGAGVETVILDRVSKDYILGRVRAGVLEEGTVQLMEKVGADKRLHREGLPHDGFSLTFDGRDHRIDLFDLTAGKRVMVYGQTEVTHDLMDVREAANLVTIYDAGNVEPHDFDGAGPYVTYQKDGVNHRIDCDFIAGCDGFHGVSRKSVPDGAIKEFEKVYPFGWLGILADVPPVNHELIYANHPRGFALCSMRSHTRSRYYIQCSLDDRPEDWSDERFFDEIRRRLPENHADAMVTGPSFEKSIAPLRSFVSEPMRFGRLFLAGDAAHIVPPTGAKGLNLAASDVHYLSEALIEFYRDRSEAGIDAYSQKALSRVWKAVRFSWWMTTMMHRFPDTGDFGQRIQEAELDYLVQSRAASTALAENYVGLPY

Compound: O=C(O)c1ccc(O)cc1 [4-hydroxybenzoate]
- HPLC of substrate consumption and protocatechuate formation [1]: Atu4544 (PobA) catalyzed the hydroxylation of 4-hydroxybenzoate to produce protocatechuate

Compound: O=C(O)CCCCC(=O)O [adipic acid]
- EMSA, effect on PobR/DNA complex formation [2]: The increased adipic acid seemed to hinder the binding of the PobR/DNA probe

Compound: CATCGTGACGATCACTCCACCGATATCGCGTGAAAAGCGGAAGCCATGTTCGAAACCCGGTGGCACGATGATGGCGACCGGCGGGCGGATCGGCTCGATGCGGCCTTCCAGCAACGCATCGATCGTCGACCTGCAGGCA (double strand) [unrelated DNA (pobR-inter)]
- binding [3]: no binding

Compound: CATCTCACCATCACTCCTCCGTGCGATGGTCGGATTGTGCAATTTACAGACAGAAAAGTCCATTGAGCTTGTGGCCGGTCTTGGTCAATTTCTTGACCGGAGACAAGTTCGGGAGGACATCATCGTCGACCTGCAGGCA (double strand) [unlabeled intergenic competitor]
- binding [3]: binds

Source: paper PMC12285266, “Function and regulation of pob genes for 4-hydroxybenzoate catabolism in Agrobacterium tumefaciens” (Applied and Environmental Microbiology, 2025)
